Active and inactive are the calls of the source. No cut-off for these calls is given here.
How the values were obtained:
[1] = system: RAW264; test: (§1) Inhibition of RANKL-induced osteoclastogenesis in mouse RAW264 cells at 50 uM after 4 days by TRAP staining based assay relative to control; assay type: functional
[2] = as §1; assay type: functional; conditions: RAW264.7, 96 h
[3] = system: RAW264; test: Inhibition of RANKL-induced osteoclastogenesis in mouse RAW264 cells after 4 days by TRAP staining based assay; assay type: functional, cell-based
[4] = Cytotoxicity against mouse RAW264 cells at 50 uM; assay type: cell-based; conditions: raw264, 50 µM

SMILES | inhibition [1] | inhibition at 50 µM [2] | inhibition [3] | Activity [4]
C[C@]12CCC[C@](C)(C(=O)O)[C@@H]1CC[C@@]1(C)c3cocc3CC[C@H]21 | inactive |  |  | 
C[C@]12CCC[C@](C)(C(=O)O)[C@@H]1CC[C@@]1(C)C3=C(CC[C@H]21)[C@@H]1C[C@@H](C(=O)O)[C@H]3O1 |  | 31% |  | 
C[C@]12CCC[C@](C)(C(=O)O)[C@@H]1CC[C@@]1(C)C3=C(CC[C@H]21)[C@H]1C[C@H](C(=O)O)[C@@H]3O1 |  | 47% |  | 
C[C@]12CCC[C@](C)(C(=O)O)[C@@H]1CC[C@@]1(C)C3=C(CC[C@H]21)[C@H]1O[C@@H]3C[C@@H]1C(=O)O |  | 28% |  | 
C[C@]12CCC[C@](C)(C(=O)O)[C@@H]1CC[C@@]1(C)C3=C(CC[C@H]21)[C@@H]1O[C@H]3C[C@@H]1C(=O)O |  | 70% | Dose-dependent effect | Non-Toxic

Reference: ChEMBL document CHEMBL4004791, “Ceylonins A-F, Spongian Diterpene Derivatives That Inhibit RANKL-Induced Formation of Multinuclear Osteoclasts, from the Marine Sponge Spongia ceylonensis” (J Nat Prod, 2017)
